Measured values as given in ChEMBL document CHEMBL5725872, “Benzofuran compounds for the treatment of hepatitis C” (2018).

Assay: HCV Replicon Luciferase Assay: To evaluate compound efficacy, titrated compounds were transferred to sterile 384-well tissue culture treated plates, and the plates were seeded with HCV replicon cells (50 μL at a density of 2.4×10^3 cells/well) in DMEM containing 4% FBS (final DMSO concentration at 0.5%). After 3 days incubation at 37° C., cells were analyzed for Renilla Luciferase activity using the EnduRen substrate (Promega cat #E6485) according to the manufacturer's directions. Briefly, the EnduRen substrate was diluted in DMEM and then added to the plates to a final concentration of 7.5 μM. The plates were incubated for at least 1 h at 37° C. then read on a Viewlux Imager (PerkinElmer) using a luminescence program. The 50% effective concentration (EC50) was calculated using the four-parameter logistic Formula noted above. To assess cytotoxicity of compounds, Cell Titer-Blue (Promega) was added to the EnduRen-containing plates and incubated for at least 4 hrs at 37° C. The fluorescence signal from each well was read using a Viewlux Imager. All CC50 values were calculated using the four-parameter logistic Formula.

Row | SMILES | EC50 (72 h) | EC50
1 | CC[C@H](NC(=O)c1cccc(-c2cc3c(C(=O)NC)c(-c4ccc(F)cc4)oc3cc2N(CCF)S(C)(=O)=O)c1)C1CC1 | < 100 nM | 
2 | CNC(=O)c1c(-c2ccc(F)cc2)oc2cc(N(CCF)S(C)(=O)=O)c(-c3cccc(C(=O)N4CCC[C@H]4CO)c3)cc12 | 100 to 1000 nM | 
3 | CNC(=O)c1c(-c2ccc(F)cc2)oc2cc(N(CCCF)S(C)(=O)=O)c(-c3cccc(C(=O)N[C@H](C)C(F)(F)F)c3)cc12 | < 100 nM | 
4 | CNC(=O)c1c(-c2ccc(F)cc2)oc2cc(N(CCCF)S(C)(=O)=O)c(-c3cccc(C(=O)N[C@@H](C)C(F)(F)F)c3)cc12 | < 100 nM | 
5 | CNC(=O)c1c(-c2ccc(F)cc2)oc2cc(N(CCCF)S(C)(=O)=O)c(-c3cccc(C(=O)NC(C)(C)C)c3)cc12 | < 100 nM | < 100 nM
6 | CNC(=O)c1c(-c2ccc(F)cc2)oc2cc(N(CCF)S(C)(=O)=O)c(-c3cccc(C(=O)N4CC[C@H](O)C4)c3)cc12 | > 1000 nM | 
7 | CNC(=O)c1c(-c2ccc(F)cc2)oc2cc(N(CCF)S(C)(=O)=O)c(-c3cccc(C(=O)NC(C)(C)C)c3)cc12 | < 100 nM | < 100 nM
8 | CNC(=O)c1c(-c2ccc(F)cc2)oc2cc(N(C(F)F)S(C)(=O)=O)c(-c3cccc(C(=O)O)c3)cc12 | > 10000 nM | 
